# Experimental data from patent publication US12569479B2 (priority 2016, dated 2026).
# Like-named read-outs stand apart in the source and are kept apart here.
# How the values were obtained:
# [1] = tested on: metabolism of dextromethorphan in human liver microsomes; assay: Inhibition of the metabolism of dextromethorphan in human liver microsomes; conditions: read-out: Mean IC50; human liver microsomes 0.5 mg/mL, dextromethorphan 5 μM, 37° C.; dextrorphan formation
# Experimental: (§1) The ability of various antidepressant compounds to inhibit the metabolism of dextromethorphan was examined using human liver microsomes.
# (§2) After optimal incubation at 37° C., the reactions were terminated by addition of methanol containing internal standard for analytical quantification. The quenched samples were incubated at 4° C. for 10 minutes and centrifuged at 4° C. for 10 minutes. The supernatant was removed, and the metabolite of dextromethorphan (dextrorphan) was analyzed by LC-MS/MS.
# [2] = Pharmacokinetic study of dextromethorphan (DM) alone or DM in combination with bupropion, plasma concentrations by LC-MS/MS; conditions: for average plasma concentration: Day 8, after bupropion administration; for Cmax: Dextromethorphan Cmax
# [3] = tested on: metabolism of dextromethorphan to dextrorphan in human liver microsomes; assay: Inhibition of the metabolism of dextromethorphan in human liver microsomes; conditions: human, human liver microsomes, pH 7.4, probe dextromethorphan (5 μM)
# Experimental: as §1, §2
# [4] = tested on: metabolism of dextromethorphan to dextrorphan in human liver microsomes; assay: in vitro; conditions: pH 7.4
# Experimental: as §1, §2
# [5] = tested on: metabolism of dextromethorphan in human liver microsomes
# Experimental: as §1, §2
# [6] = tested on: dextromethorphan metabolism (dextromethorphan/dextrorphan metabolic ratio); assay: Phenotypic determination of dextromethorphan metabolizer status (dextromethorphan/dextrorphan metabolic ratio); conditions: Day 8; 3 hours after dosing
# Experimental: (§3) Plasma concentrations of dextromethorphan and dextrorphan 3 hours after dosing were used, with a dextromethorphan/dextrorphan ratio of 0.3 or greater indicating a poor metabolizer phenotype.
# [7] = tested on: daily smokers using 10 or more cigarettes per day (nicotine addiction); assay: Phase 2 randomized, double-blind, active-controlled study of DM/BU for smoking cessation treatment; format: in vivo, human
# Text: Enrolled subjects were daily smokers using 10 or more cigarettes per day.
# The primary outcome measure was the change in smoking intensity, measured using the number of cigarettes smoked per day, assessed via daily smoking diaries.
# [8] = tested on: adult patients with moderate to severe major depressive disorder (MDD); assay: Phase 2 randomized, double-blind, active-controlled trial of DM/BU in major depressive disorder; format: in vivo, human; conditions: twice daily for 6 weeks; DM/BU 45 mg/105 mg or bupropion 105 mg
# Experimental: The changes from baseline in the Montgomery-Asberg Depression Rating Scale (MADRS) total score over the 6-week treatment period were calculated at each time point and averaged.
# [9] = tested on: patients with agitation associated with Alzheimer's disease; assay: Phase 2/3 randomized, double-blind, controlled trial of DM/BU in agitation associated with Alzheimer's disease
# Experimental: (§4) A Phase 2/3 randomized, double-blind, controlled, multicenter, U.S. clinical trial was conducted to evaluate the efficacy and safety of DM/BU in patients with agitation associated with Alzheimer's disease. […] Subsequently, patients were randomized in a 1:1 ratio to receive DM/BU or placebo. […] The minimum score on the CMAI is 29, corresponding to the total absence of symptoms, with higher scores corresponding to greater agitation. The primary endpoint of the study was the change from baseline in the CMAI total score at Week 5. P-values were calculated based on least square mean estimates.
# [10] = tested on: patients with agitation associated with Alzheimer's disease; conditions: both, human, in vivo, 5 weeks
# Experimental: as §4
# [11] = tested on: dextromethorphan metabolism (dextromethorphan/dextrorphan metabolic ratio); conditions: human, in vivo, 3 h
# Experimental: as §3
# [12] = tested on: patients with treatment resistant depression (TRD); assay: Phase 3 randomized, double-blind, active controlled trial of DM/BU in treatment resistant depression
# Text: Inclusion criteria for the open-label period included males or females 18-65 years of age, a history of inadequate response to 1 or 2 prior antidepressant treatments, established by the Antidepressant Treatment Response Questionaire (ATRQ), and a Hamilton Depression Rating Scale (HAMD-17) total score of ≥18. Inclusion criteria for the double-blind period included inadequate response to 2 or 3 prior antidepressant treatments, including open-label period failure. Exclusion criteria included a history of electroconvulsive therapy, vagus nerve stimulation, transcranial magnetic stimulation, or any experimental central nervous system treatment during the current episode or in the past 6 months, schizophrenia, bipolar disorder, obsessive compulsive disorder, psychiatric symptoms secondary to any other general medical condition.
# The change in depressive symptoms over time was measured using the Montgomery-Asberg Depression Rating Scale (MADRS) and the Quick Inventory of Depressive Symptomatology-Self-Rated (QIDS-SR-16). The primary endpoint was the change from baseline in the MADRS after 6 weeks of treatment. The key secondary endpoints were the change from baseline in the MADRS after 1 week of treatment, after 2 weeks of treatment, the average change over entire 6-week double-blind treatment period, and the Sheehan Disability Scale (SDS). Other pre-specified secondary efficacy variables included the Cognitive subscale of the Massachusetts General Hospital Cognitive and Physical Functioning Questionnaire (CPFQ), and the Hamilton Anxiety Scale (HAM-A).
# [13] = human, in vivo
# [14] = DM/BU 45 mg/105 mg or bupropion 150 mg twice daily
# [15] = Open-label Period, bupropion 150 mg twice daily
smiles,measurement,setting,value
"C[C@H]1NC(C)(C)CO[C@]1(O)c1cccc(Cl)c1 [(R,R)-Hydroxybupropion]",IC50,[1],8.2 µM
C[C@H]1NC(C)(C)CO[C@]1(O)c1cccc(Cl)c1 [hydroxybupropion],average plasma concentration,[2],≥ 200 ng/mL
COCCCC/C(=N\OCCN)c1ccc(C(F)(F)F)cc1 [Fluvoxamine],IC50,[3],6.5 µM
CN(C)CC(c1ccc(O)cc1)C1(O)CCCCC1 (centres unmarked) [Desvenlafaxine],IC50,[3],97.3 µM
COc1ccc(C(CN(C)C)C2(O)CCCCC2)cc1 (centres unmarked) [Venlafaxine],IC50,[4],27.7 µM
"C[C@@H]1NC(C)(C)CO[C@@]1(O)c1cccc(Cl)c1 [(25,3S)-Hydroxybupropion]",IC50,[1],12.5 µM
CN(C)CCC[C@@]1(c2ccc(F)cc2)OCc2cc(C#N)ccc21 [Escitalopram],IC50,[3],17.1 µM
CNCC[C@H](Oc1cccc2ccccc12)c1cccs1 [(S)-Duloxetine],IC50,[5],4.1 µM
CN(C)CCCC1(c2ccc(F)cc2)OCc2cc(C#N)ccc21 (centres unmarked) [Citalopram],IC50,[3],14.1 µM
CC(NC(C)(C)C)C(O)c1cccc(Cl)c1 (centres unmarked) [Erythrohydroxybupropion],average plasma concentration,[2],≥ 20 ng/mL
same,IC50,[1],1.4 µM
COc1ccc2c(c1)[C@]13CCCC[C@@H]1[C@H](C2)N(C)CC3 [Dextromethorphan],mean plasma dextromethorphan/dextrorphan metabolic ratio,[6],remained unchanged
same,Mean Trough Dextromethorphan Plasma Concentrations,[2]; Day 1,0.7 ng/mL
same,Mean Trough Dextromethorphan Plasma Concentrations,[2]; Day 5,1.2 ng/mL
same,Mean Trough Dextromethorphan Plasma Concentrations,[2]; Day 6,1.3 ng/mL
same,Mean Trough Dextromethorphan Plasma Concentrations,[2]; Day 7,1.2 ng/mL
same,Dextromethorphan Cavg,[2]; Day 8,2.3 ng/mL
same,Dextromethorphan Cmin,[2]; Day 8,1.1 ng/mL
same,Mean Trough Dextromethorphan Plasma Concentrations,[2]; Day 8,1.1 ng/mL
same,mean elimination half-life (T1/2 el) of dextromethorphan,[2]; Day 8,6.6 h
same,AUC(0-inf),"[2]; human, in vivo, 60 mg",41.2 ng·h/mL
same,Tmax,"[2]; human, in vivo, 60 mg",2.3 h
same,concentration at 0 h,"[2]; human, in vivo, 60 mg",1.2 ng/mL
same,concentration at 1 h,"[2]; human, in vivo, 60 mg",2.4 ng/mL
same,concentration at 2 h,"[2]; human, in vivo, 60 mg",3.6 ng/mL
same,concentration at 3 h,"[2]; human, in vivo, 60 mg",3.6 ng/mL
same,concentration at 4 h,"[2]; human, in vivo, 60 mg",3.3 ng/mL
same,concentration at 6 h,"[2]; human, in vivo, 60 mg",2.5 ng/mL
same,concentration at 8 h,"[2]; human, in vivo, 60 mg",1.9 ng/mL
same,concentration at 12 h,"[2]; human, in vivo, 60 mg",1.1 ng/mL
same,concentration at 24 h,"[2]; human, in vivo, 60 mg",0.4 ng/mL
same,concentration at 36 h,"[2]; human, in vivo, 60 mg",0.1 ng/mL
same,AUC(0-t),"[2]; human, in vivo, 60 mg, Dextromethorphan AUC0-12, Day 1",20.1 ng·h/mL
same,AUC(0-t),"[2]; human, in vivo, 60 mg, Dextromethorphan AUC0-12, Day 8",28.1 ng·h/mL
same,AUC(0-t),"[2]; human, in vivo, 60 mg, Dextromethorphan AUC0-24, Day 8",37.1 ng·h/mL
same,Cmax,"[2]; human, in vivo, 60 mg, Day 1",3 ng/mL
same,Cmax,"[2]; human, in vivo, 60 mg, Day 8",3.8 ng/mL
CC(NC(C)(C)C)C(=O)c1cccc(Cl)c1.Cl (racemic) [Bupropion],proportion of smokers with more than 50% reduction in expired carbon monoxide levels,[7]; 3-week period,30.4%
same,average reduction in cigarettes smoked per day,"[7]; over the 3-week period, twice daily",6.79 cigarettes per day
same,Change in MADRS Total Score at week 6,[8],−12.1
same,Change in MADRS Total Score over 6-week period (averaged),[8],−8.8
same,"Deaths, % of subjects",[9]; Safety Population,(2.0%
same,"Deaths, number of subjects",[9]; Safety Population,1 subjects
same,"Deaths, number of subjects","[9]; Safety Population, listed as bupropion",one
same,mean reduction from baseline in the CMAI total score,[9]; Week 5 (primary endpoint),10.0 points
same,"Diarrhea, number of subjects",[10],3 subjects
same,"Discontinuation due to AEs, number of subjects",[10],1 subjects
same,"Dizziness, number of subjects",[10],5 subjects
same,"Falls, % of subjects",[10],(14.3%)
same,"Falls, number of subjects",[10],7 subjects
same,"Fatigue, % of subjects",[10],(10.2%)
same,"Fatigue, number of subjects",[10],5 subjects
same,"Headache, % of subjects",[10],(6.1%)
same,"Headache, number of subjects",[10],3 subjects
same,"Insomnia, % of subjects",[10],(6.1%)
same,"Insomnia, number of subjects",[10],3 subjects
same,"Serious AEs, number of subjects",[10],4 subjects
same,"Somnolence, number of subjects",[10],2 subjects
same,"Subjects with any TEAE, % of subjects",[10],(61.2%)
same,"Subjects with any TEAE, number of subjects",[10],30 subjects
same,subjects converted to poor metabolizer status,[11],100%
same,mean reduction in MADRS averaged over the entire 6-week treatment period,[12]; [14],6.7
same,mean reduction in QIDS-SR-16 averaged over the entire 6-week treatment period,[12]; [14],2.3
same,"Anxiety, number of subjects",[12]; Double-blind Period,0 subjects
same,"Any TEAE, % of subjects",[12]; Double-blind Period,(39.1%)
same,"Any TEAE, number of subjects",[12]; Double-blind Period,61 subjects
same,"Constipation, % of subjects",[12]; Double-blind Period,(1.9%)
same,"Constipation, number of subjects",[12]; Double-blind Period,3 subjects
same,"Dizziness, number of subjects",[12]; Double-blind Period,0 subjects
same,"Dry mouth, % of subjects",[12]; Double-blind Period,(1.9%)
same,"Dry mouth, number of subjects",[12]; Double-blind Period,3 subjects
same,"Headache, % of subjects",[12]; Double-blind Period,(4.5%)
same,"Headache, number of subjects",[12]; Double-blind Period,7 subjects
same,"Insomnia, % of subjects",[12]; Double-blind Period,(3.2%)
same,"Insomnia, number of subjects",[12]; Double-blind Period,5 subjects
same,"Irritability, % of subjects",[12]; Double-blind Period,(1.3%)
same,"Irritability, number of subjects",[12]; Double-blind Period,2 subjects
same,"Nausea, % of subjects",[12]; Double-blind Period,(1.9%)
same,"Nausea, number of subjects",[12]; Double-blind Period,3 subjects
same,rate of discontinuation due to adverse events,[12]; Double-blind Period,1.9%
same,"Anxiety, % of subjects",[12]; Open-label Period,(3.5%)
same,"Anxiety, number of subjects",[12]; Open-label Period,11 subjects
same,"Constipation, % of subjects",[12]; Open-label Period,(4.2%)
same,"Constipation, number of subjects",[12]; Open-label Period,13 subjects
same,"Dizziness, % of subjects",[12]; Open-label Period,(2.9%)
same,"Dizziness, number of subjects",[12]; Open-label Period,9 subjects
same,"Dry mouth, % of subjects",[12]; Open-label Period,(4.2%)
same,"Dry mouth, number of subjects",[12]; Open-label Period,13 subjects
same,"Headache, % of subjects",[12]; Open-label Period,(4.5%)
same,"Headache, number of subjects",[12]; Open-label Period,14 subjects
same,"Insomnia, % of subjects",[12]; Open-label Period,(6.1%)
same,"Insomnia, number of subjects",[12]; Open-label Period,19 subjects
same,"Irritability, % of subjects",[12]; Open-label Period,(3.2%)
same,"Irritability, number of subjects",[12]; Open-label Period,10 subjects
same,"Nausea, % of subjects",[12]; Open-label Period,(7.1%)
same,"Nausea, number of subjects",[12]; Open-label Period,22 subjects
same,"Any TEAE, % of subjects",[12]; [15],(43.5)
same,"Any TEAE, number of subjects",[12]; [15],135 subjects
same,mean MADRS reduction,[12]; Week 1,3.6
same,mean MADRS reduction,[12]; Week 2,6.1
same,rate of remission from depression (QIDS-SR-16 ≤5),[12]; Week 6,8.2%
same,mean MADRS reduction,[12]; Week 6 (primary endpoint),9.4
same,IC50,[3],9.1 µM
same,reduction in mean dextrorphan AUC0-12,[13],~55%
same,reduction in mean dextrorphan Cmax,[13],~78%
C[C@H](NC(C)(C)C)[C@@H](O)c1cccc(Cl)c1 [Threohydroxybupropion],average plasma concentration,[2],≥ 100 ng/mL
same,IC50,[1],3.9 µM
